Tests used:
[1] = test system: human colon cancer cell growth; settings: murine xenograft model; cited from earlier work
[2] = test system: A549 cells (a lung cancer cell line); assay: Cell growth (MTT) with recovery (wash) phase after naltrexone; format: cell-based; settings: 1 nM and 10 nM naltrexone 48 h then 24 h drug-free vs 72 h continuous
Protocol: (§1) (A) A549 cells (a lung cancer cell line) and (B) HCT116 cells (a colorectal carcinoma cell line), were cultured for 48 h in 1 nM and 10 nM (low dose) naltrexone (LDN) and in 1 μM and 10 μM (standard dose) naltrexone (NTX). Cells were either then washed and allowed to grow in drug-free medium for 24 h (wash) or continuously cultured in naltrexone for a total of 72 h (72); cell was viability assessed by absorbance readings. Effect of the wash step on HCT116 cells were also measured by (C) 3-(4,5-dimethylthiazol-2-yl)-2,5-diphenyltetrazolium bromide (MTT) colorimetric assay, (D) cell counting and (E) percentage of viable cells.
(§2) To study the effect of each agent on cell growth, cells growing exponentially were added to 96-well plates at a density of 3×10^4/well. Drugs were then added to the wells, ensuring an equal volume of 200 μl across the plate. Cell number was measured at 72 hr using a standard methylthiazoletetrazolium (MTT)-based assay without modifications. Briefly, MTT was added to each well to give a working concentration of 0.4 mg/ml, and plates returned to the incubator for a further 1 hr. After this time, the medium was aspirated off, 200 μl of DMSO was then added to each well and plates agitated gently for 5 min before measuring optical density at 540 nm in each well. […]

[3] = test system: Bcl-2-associated death promoter (BAD) protein; assay: Western blot/densitometry of cell cycle proteins in HCT116 cells; format: cell-based, human; settings: 10 nM naltrexone (LDN), 48 h
Protocol: (§3) Methodologically, HCT116 cells were treated with NTX and LDN for 48 h before determination of cellular proteins as labelled in the figure. The intensities of each of the bands indicate the level at which these proteins were expressed, which were enumerated by density analysis.
(§4) Cells were treated with 10 μM naltrexone (NTX) or 10 nM naltrexone (LDN) for 48 hr before they were harvested, and total cellular protein was solubilised in lysis buffer and resolved by Tris-glycine electrophoresis using a 4-12% bis-tris gradient-gel. Following transfer of proteins to 0.45-lm nitrocellulose membranes, blocking was performed in 5% (w/v) nonfat milk in TTBS [0.5% (v/v) Tween-20 in TBS (50 mM Tris, 150 mM NaCl, pH 8.0)]. Primary antibody probing for the protein specified in the figure were performed overnight at 4° C. before secondary probing using horseradish peroxidase-conjugated anti-species IgG1. Bands were visualised by the ECL-plus detection system. Densitometry analysis was performed using proprietary analysis software. RNA was extracted from these cells for gene expression analysis. RNA was purified by Trizol, followed by precipitation with isopropanol. […] Equal amounts (750 ng) of cRNA were hybridised to the Illumina human HT12-v3 arrays for 18 hr and subsequently processed according to manufacturer's instructions before scanning on an Illumina BeadArray Reader. […]

phosphorylated AKT = assay: as above; format: cell-based, human; settings: 10 nM naltrexone (LDN), 48 h
Protocol: as §3, §4

[4] = test system: human ovarian cancer cells; settings: short-term naltrexone exposure; cited from earlier work
[5] = test system: U87MG cells (glioma cell line); assay: Cell growth (absorbance) with recovery (wash) phase after naltrexone; format: cell-based; settings: naltrexone 48 h then 24 h drug-free vs 72 h continuous
Protocol: (§5) To study the effect of each agent on cell growth, cells growing exponentially were added to 96-well plates at a density of 3×10^4/well. Drugs were then added to the wells, ensuring an equal volume of 200 μl across the plate. Cell number was measured at 72 hr using a standard methylthiazoletetrazolium (MTT)-based assay without modifications. Briefly, MTT was added to each well to give a working concentration of 0.4 mg/ml, and plates returned to the incubator for a further 1 hr. After this time, the medium was aspirated off, 200 μl of DMSO was then added to each well and plates agitated gently for 5 min before measuring optical density at 540 nm in each well. The effect of recovery, where a wash step was included, was studied by removing naltrexone-containing medium and replacing this with fresh drug-free medium after 48 hr, before assessing cell number at the 72 hr time-point. Cell counting was performed by under light microscopy using staining with trypan blue to aid the discrimination of dead/dying cells. See description of FIGS. 1 and 2.

[6] = test system: T98G cells (glioma cell line); assay: as above; format: cell-based; settings: naltrexone 48 h then 24 h drug-free vs 72 h continuous
Protocol: as §5

murine neuroblastoma = settings: murine xenograft model; cited from earlier work
[7] = test system: HCT116 cells (a colorectal carcinoma cell line); assay: Cell growth (MTT, cell counting, viability) with recovery (wash) phase after naltrexone; format: cell-based, human; settings: 1 nM and 10 nM naltrexone 48 h then 24 h drug-free vs 72 h continuous
Protocol: as §1, §2

SMILES: O=C1CC[C@@]2(O)[C@H]3Cc4ccc(O)c5c4[C@@]2(CCN3CC2CC2)[C@H]1O5 [LDN, morphinan-6-one, 17-(cyclopropylmethyl)-4,5-epoxy-3,14-di hydroxy-(5α)]
- growth of human colon cancer cells [1]: inhibition
- cell numbers, recovery (wash) phase vs continuous administration [2]: greater reduction in cell numbers
- BAD protein level relative to untreated cells [3]: upregulated
- phosphorylated AKT level relative to untreated cells (phosphorylated AKT): downregulated
- DNA synthesis [4]: decrease in DNA synthesis
- cell numbers, recovery (wash) phase vs continuous administration [5]: greater reduction in cell numbers
- cell numbers, recovery (wash) phase vs continuous administration [6]: greater reduction in cell numbers
- growth of murine neuroblastoma (murine neuroblastoma): inhibition
- cell numbers, recovery (wash) phase vs continuous administration [7]: greater reduction in cell numbers
